“And” between values parts separate entries of the source, which are not always exact repeats. Equal values may be shown once. Numbers after ± are expanded uncertainties.
Settings: Liquid, Distillation

CC(O)CNCC(C)O (centres undefined) [N-(2-hydroxypropyl)-2-hydroxy-1-propanamine]
Settings | vapor or sublimation pressure
420 K | 2.8 ± 2.4 kPa
422 K | 3 ± 2.4 kPa and 3.1 ± 2.4 kPa
428 K | 4 ± 2.4 kPa and 4.4 ± 2.4 kPa
429 K | 4.1 ± 2.4 kPa
433 K | 4.9 ± 2.4 kPa and 5.1 ± 2.4 kPa
437 K | 5.9 ± 2.5 kPa
440 K | 6.8 ± 2.5 kPa
441 K | 7 ± 2.5 kPa
444 K | 7.8 ± 2.5 kPa and 7.9 ± 2.5 kPa
447 K | 8.9 ± 2.5 kPa
448 K | 9.9 ± 2.5 kPa
449 K | 9.9 ± 2.5 kPa
450 K | 10.1 ± 2.6 kPa
451 K | 10.6 ± 2.5 kPa and 10.8 ± 2.5 kPa
452 K | 10.9 ± 2.6 kPa
453 K | 11.9 ± 2.6 kPa
454 K | 11.8 ± 2.5 kPa and 11.9 ± 2.5 kPa
456 K | 12.9 ± 2.6 kPa
457 K | 13.1 ± 2.6 kPa and 13.9 ± 2.6 kPa
458 K | 13.9 ± 2.7 kPa and 14 ± 2.7 kPa
460 K | 14.9 ± 2.7 kPa
461 K | 15.8 ± 2.6 kPa
464 K | 17.2 ± 2.6 kPa
465 K | 17.9 ± 2.6 kPa

From the NIST ThermoML archive (doi:10.1016/j.fluid.2012.11.009)
